Source: patent US5262537A, “Derivatives of 4,5,6,7-tetrahydroimidazo-[4,5-c]pyridinyl-6-carboxylic acid” (priority 1993, dated 1993)
Where two headings read alike, the source gives them in different places.

Assays:
5-HT3 = biological target: T1, 5-HT3 (Rattus norvegicus, UniProt P35563); assay: biochemical; format: binding, Male Sprague-Dawley rats
T1 sequence (P35563 24-483): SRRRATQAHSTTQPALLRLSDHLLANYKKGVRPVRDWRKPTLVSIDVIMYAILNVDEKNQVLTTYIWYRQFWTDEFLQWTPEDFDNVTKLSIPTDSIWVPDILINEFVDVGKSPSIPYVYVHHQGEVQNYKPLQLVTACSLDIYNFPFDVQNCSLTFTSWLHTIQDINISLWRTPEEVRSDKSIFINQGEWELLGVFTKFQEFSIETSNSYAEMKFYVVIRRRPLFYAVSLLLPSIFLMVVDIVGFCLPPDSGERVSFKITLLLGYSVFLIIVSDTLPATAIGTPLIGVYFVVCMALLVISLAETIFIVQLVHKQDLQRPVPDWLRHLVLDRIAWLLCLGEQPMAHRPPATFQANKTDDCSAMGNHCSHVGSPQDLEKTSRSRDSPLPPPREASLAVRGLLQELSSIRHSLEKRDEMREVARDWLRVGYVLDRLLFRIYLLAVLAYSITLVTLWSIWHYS
Experimental: A number of compounds in accordance with the present invention were tested for their 5-HT3 and D2 binding affinities in accord with the following procedures.
Male Sprague-Dawley rats (175-220 g) were sacrificed by decapitation and their brains removed rapidly. The entorhinal cortex was used for the 5-HT3 (5-hydroxytryptamine) binding assay and the remainder of the brain, minus the brain stem and cerebellum, was used for the D2 (dopamine) binding assay. The entorhinal cortex was harvested and prepared on the day of the assay.
The entorhinal cortex was homogenized in 20 volumes of cold 50 mM HEPES buffer, pH 7.4, while the remaining brain tissue was homogenized in 20 volumes of cold 50 mM Tris, pH 7.4. The homogenates were centrifuged at 4800×g for 15 minutes at 5° C. and the supernatants decanted. Pellets were resuspended in the original volume of HEPES or Tris. Homogenates were centrifuged and the supernatants decanted. Pellets were resuspended in the same volume of HEPES or Tris and incubated at 37° C. for 45 minutes to remove endogenous neurotransmitters. Homogenates were centrifuged and the supernatants were decanted. Pellets for D2 assays were stored at -50° C. until the day of the assay. The pellets for the 5-HT3 assay (entorhinal cortex) were resuspended in the appropriate amount of HEPES buffer and used promptly. Modifications of published assays for [^3 H]GR65630 (Kilpatrick et al., Nature: 330, 746-748 (1987)) and [^3 H]raclopride (Dewar et al., J. Pharmacol. Exp. Ther.: 250, 696-706 (1989) and Lidow et al., Proc. Natl. Acad. Sci. USA: 86, 6412-6416 (1989)) were used for the 5-HT3 and D2 binding assays, respectively.
Briefly, 0.25 ml of homogenate was incubated with either 0.2 nM of [^3 H]GR65630 or 1.0 nM of [^3 H]raclopride in a final volume of 0.5 ml. D2 binding also requires sodium chloride and potassium chloride (120 mM and 5 mM, final concentration, respectively). In the 5-HT3 assay, non-specific binding was defined in the presence of 100 uM quipazine. In the D2 assay, non-specific binding was defined in the presence of 100 uM of (+/-) sulpiride. Both assays were incubated at room temperature; [^3 H]GR65630 for 40 minutes and [^3 H]raclopride for 60 minutes. Test compounds (0.1 ml) were added to incubates where appropriate. Bound ligand was separated from free ligand by filtration and quantified using liquid scintillation spectrophotometry. IC50 values were calculate for all test compounds.

Ferret = assay: Cisplatin Ferret Assay--Antiemetic Screening; format: in vivo, Male ferrets; conditions: for inhibition in vivo at 0.1 mg/kg / ED50: Mustela putorius, iv, 4 h; for inhibition in vivo at 0.1 mg/kg: read-out: Ferret Cisplatin Test % Prot, 0.1 mg/Kg; for ED50: i.v., emetic episodes over four hours, read-out: Ferret Cisplatin Test ED50
Experimental: Male ferrets (castrated, descented, 1-2 kg) were purchased from Triple F Farms, Syre, Pa. Ferrets were housed four in a cage with a 12 hour light cycle and were fed ad libitum with Ralston Purina Cat Chow. Each ferret was used unfasted for the assay after a minimum of a 24 hour acclimation time in animal facility.
Ferret Preparation. Each ferret was anesthetized with 5% isoflurane-O2in a 20 gallon aquarium for 2 to 5 minutes. After removal of the anesthetic gas, the animals were removed and weighed. Injections were made into the dorsal front paw vein using a tourniquet and a 1 ml tuberculin syringe with a 25 g needle while the animal was maintained under anesthesia using a small nose cone delivering 5% isoflurane-O2. Cisplatin was injected using a 3 ml or 5 ml syringe in the opposite paw from the study compound or saline. Recovery time from anaesthesia was 5 to 8 minutes.
Drug Preparation. Cisplatin bulk powder was weighed and dissolved in normal saline at 75° C. to provide a 5 mg/ml solution (90 mg was placed in a scintillation vial and qs with 18 ml saline). The solution was stirred and maintained at 40° C. until ready for use. The study drug was weighed and dissolved in normal saline at room temperature to provide a 1 mg/ml solution (10 mg was placed in a scintillation vial and qs with 10 ml saline). Suspensions were heated to 40° C. to bring the study compound into solution. Compounds not soluble under these conditions were not assayed.
Assay. Cisplatin was injected i.v. at 10 mg/kg into twelve anesthetized ferrets daily at time zero. Normal saline (0.5 ml) or the study compound (0.1 or 1.0 mg/kg) was injected 30 minutes later in groups of three anesthetized ferrets. Order of treatment and treatment dose was selected at random, with the remaining treatment dose assayed in the next experiment.
Experimental Observations and Data Collection. Ferrets were viewed individually. The time and number of emetic episodes were recorded for four hours. Zero time was equivalent to the time of cisplatin injection. […] Retches were recorded but not counted. The total number of episodes for each of the four groups of three ferrets (+/-S.E.) was averaged and the effect of treatment (% protection) was calculated as the percent reduction of emetic episodes compared to controls. [formula]
Percent protection values were determined from experimental controls. Experimental controls were those obtained from the day of the experiment. Onset times of the first episode were averaged and recorded for each group. Prodromal signs (lip licking, slit eyes, head shaking, salivation, scratching, clawing, walking backward, sedation, urination, and defecation) were also averaged and recorded.

[1] = 0.2 nM [3H]GR65630, rat entorhinal cortex, 40 minutes, room temperature, read-out: 5-HT3 IC50
[2] = 0.1 mg/kg i.v., 30 minutes after cisplatin 10 mg/kg i.v., percent reduction of emetic episodes vs controls, four hours
[3] = 30 minutes after cisplatin 10 mg/kg i.v.

SMILES	IC50 (5-HT3; [1]) [nM]	inhibition in vivo at 0.1 mg/kg (Ferret; [2]) [%]	ED50 (Ferret; [3]) [mg/kg]	Ferret Cisplatin Test % Prot, 0.1 mg/Kg (Ferret; [2]) [%]	IC50 (5-HT3) [nM]	inhibition in vivo at 0.1 mg/kg (Ferret) [%]
CN1Cc2nc[nH]c2C[C@@H]1C(=O)Nc1ccccc1O [Compd 1]	10.9	73	0.063			
COc1ccc(Cl)cc1NC(=O)[C@H]1Cc2[nH]cnc2CN1C [Compd 2]	10	31	0.4			
COc1ccccc1NC(=O)[C@H]1Cc2[nH]cnc2CN1C [Compd 3]	47.6	9	2.08			
COC(=O)c1ccccc1NC(=O)[C@H]1Cc2[nH]cnc2CN1C [Compd 4]	12.1	33	0.1			
CC(=O)c1ccccc1NC(=O)[C@H]1Cc2[nH]cnc2CN1C [Compd 5]	4.26	22	0.123			
COc1ccccc1NC(=O)[C@@H]1Cc2[nH]cnc2CN1C [Compd 6]	4.86	77	0.023			
COc1ccc(Cl)cc1NC(=O)[C@@H]1Cc2[nH]cnc2CN1C [Compd 7]	6.26	57	0.14			
COc1ccccc1NC(=O)[C@H]1Cc2[nH]cnc2CN1 [Compd 8]	10.4	62				
CN1Cc2nc[nH]c2C[C@@H]1C(=O)Nc1ccccc1 [Compd 9]	57.2	26	0.33			
CCOc1ccccc1NC(=O)[C@H]1Cc2[nH]cnc2CN1C [Compd 10]	4.14	29	0.31			
CN1Cc2nc[nH]c2C[C@@H]1C(=O)Nc1ccccc1Oc1ccccc1 [Compd 11]	8.19	15	0.47			
CN1Cc2[nH]cnc2C[C@@H]1C(=O)Nc1nccs1 [Compd 12]	273			40		
CN1Cc2nc[nH]c2C[C@@H]1C(=O)Nc1nc2ccccc2s1 [Compd 13, (R)-6-(2-benzothiazolylaminocarbonyl)-5-methyl-4,5,6,7-tetrahydroimidazo[4,5-c]pyridine]	71.5	76	0.074			
COc1ccccc1NC(=O)[C@@H]1Cc2[nH]cnc2CN1 [Compd 14, (S)-6-(2-methoxyphenyl)aminocarbonyl-4,5,6,7-tetrahydroimidazo[4,5-c]pyridine]	8.53	48	0.062			
CN1Cc2nc[nH]c2C[C@H]1C(=O)Nc1ccccc1O [Compd 15, (S)-6-(2-hydroxyphenylaminocarbonyl)-5-methyl-4,5,6,7-tetrahydroimidazo[4,5-c]pyridine]	62.4	99	0.007			
COC(=O)c1ccccc1NC(=O)[C@@H]1Cc2[nH]cnc2CN1C [Compd 16]	29	42	0.01			
CCOc1ccccc1NC(=O)[C@@H]1Cc2[nH]cnc2CN1C [Compd 17]	15.4	58	0.2			
CCN1Cc2nc[nH]c2C[C@H]1C(=O)Nc1ccccc1O [Compd 18]	17.6	46	0.16			
CN1Cc2nc[nH]c2C[C@@H]1C(=O)c1ccccc1 [Compd 19, (R)-6-benzoyl-5-methyl-4,5,6,7-tetrahydroimidazo[4,5-c]pyridine]					58.5	8
COc1ccccc1NC(=O)[C@@H]1Cc2[nH]cnc2CN1C(C)=O [Compd 47, (S)-5-acetyl-6-(2-methoxyphenylaminocarbonyl)-4,5,6,7-tetrahydroimidazo[4,5-c]pyridine]		81	0.044			
CN1C2CCCC1CC(NC(=O)c1nn(C)c3ccccc13)C2 (stereo not drawn) [Granisetron, reference compound]		71	0.03			
Cc1nccn1CC1CCc2c(c3ccccc3n2C)C1=O (stereo not drawn) [Ondansetron, reference compound]		77	0.041			
